# Reference: article PMC6080388 (Journal of Enzyme Inhibition and Medicinal Chemistry, 2017)
# Where “and” joins values, the source holds several entries; their conditions need not be identical. Identical values can stand only once. Like-named read-outs stand apart in the source and are kept apart here.
# Experiments:
# [1] = target: T1, BuChE (EC 3.1.1.8, from equin serum) (Equus caballus, UniProt P81908); experiment: biochemical; format: biochemical; conditions: for IC50: means ± SEM of three independent experiments, equine serum BuChE; for BuChE inhibitory activity, fold higher than donepezil: in comparison to donepezil
# T1 construct: BuChE (EC 3.1.1.8, from equin serum); purchased Sigma Aldrich (Steinheim, Germany); host or cells: equine serum
# Protocol: (§2) The inhibitory activities of the tested compounds towards AChE and BuChE were performed using Ellman’s method[25]. All reagents including AChE (EC 3.1.1.7, from Electrophorus electricus), BuChE (EC 3.1.1.8, from equin serum), DTNB (Ellman’s reagent), and acetylthiocholine iodide (ATC iodide) were purchased from Sigma Aldrich (Steinheim, Germany). Analysis was executed in following procedure: AChE and BuChE solution was made by dissolving enzymes in phosphate buffer (pH 7.4) to obtain 2 and 4 U/ml, respectively. […] The study was performed in triplicate and recorded in 96-well microplates, using multifunctional microplate reader. The assay medium contained DTNB solution 0.4 mg/ml (76 µl), AChE (10 µl), various concentration of the examined compounds (14 µl) and ATC iodine solution (40 µl) at the concentration of 1 mM. For the reference value, 14 µl of the test compound solutions were replaced by phosphate buffer (pH 7.4). […] Inhibition activity was expressed as a percentage of the activity of the tested compound relative to the reference control.
# [2] = target: T2, AChE (EC 3.1.1.7, from Electrophorus electricus) (Electrophorus electricus, UniProt O42275); experiment: biochemical; format: biochemical; conditions: for Selectivity for AChE: IC50(BuChE)/IC50(AChE)
# T2 construct: purchased Sigma Aldrich (Steinheim, Germany)
# Protocol: as §2
# [3] = system: ATCC CCL-185 cell line (Epithelial cells from human lungs, carcinoma); experiment: MTT cytotoxicity assay on ATCC CCL-185 cells; format: cell-based; conditions: 22.22 µM; 48 h
# Protocol: (§1) In the experiment, ATCC CCL-185 cell line was used (Epithelial cells from human lungs, carcinoma). Cells were seeded on 96-wells plate (F12 Thermo Fisher medium, Waltham MA) and incubated for 24 h. Then the cells were treated with various concentrations (0.22, 1.11, 2.22, 22.22, and 222.20 µM) of the tested compound dissolved in methanol and incubated for 48 h. Final methanol concentration in each well was 1 µl per 100 µl of medium. As a control, the same medium as for cells breeding was used with addition of 1 µl methanol and without studied compound. As a positive control pure methanol was used. After the time of incubation, procedure was carried out according to Vybrant MTT Cell Proliferation Assay Kit: cells were labelled with 10 µl of the 12 mM MTT stock solution, incubated at 37 °C for 4 h, all medium but 25 µl was removed from the wells, 50 µl of DMSO was added, incubated for 10 min at 37 °C and the absorbance at 540 nm was measured.
# [4] = MTT cytotoxicity assay on ATCC CCL-185 cells; format: cell-based, human; conditions: human, ATCC CCL-185 cells (human lung carcinoma epithelial cells), control as 100%, read-out: cell viability
# Protocol: as §1
# EeAChE = target: T3, EeAChE (Electrophorus electricus, UniProt O42275); format: biochemical; conditions: for Vmax: AChE
# T3 construct: purchased Sigma Aldrich (Steinheim, Germany)
# Protocol: The kinetic characterisation was evaluated according to the Ellman’s method[4] ^, [25]. […]. The tested medium contained: DTNB solution (0.4 mg/ml), AChE solution (2 U/ml), solution of the examined compound and different concentrations of the substrate ACT iodide in a total volume of […]. Absorbance were detected at 412 nm at room temperature after 6 min. Received date were calculated and presented on the Lineweaver–Burk plot. Determinated the KM and Vmax values were used to define the type of enzyme inhibition.
# Aβ1–42 = target: T4, Aβ1–42 (Homo sapiens, UniProt P05067); experiment: Aβ1–42 aggregation assay, Thioflavin T fluorescence; format: biochemical; conditions: Aβ1–42 12.58 μM, 24 h
# T4 construct: final Aβ1–42 concentration – 12.58 μM
# Protocol: The Aβ1–42 aggregation assay was established using the Thioflavin T fluorescence method[22] ^, [26] ^, [27]. Experiment was performed by incubating the peptides previously dissolved in DMSO at room temperature for 24 h (final Aβ1–42 concentration – 12.58 μM) with or without the tested compounds at the different concentrations (5, 10, 25, 50, and100 μM). After incubation all samples were diluted in PBS – phosphate buffer (pH 7.4) containing Thioflavin T (5 μM). Subsequently, after 5 min incubation with the dye, fluorescence signal was measured (excitation wavelength 446 nm, emission wavelength 490 nm) on a monochromator based multimode microplate reader (Synergy H1, Bio-Tek, Winooski, VT), adapted for 96-well microtiter plates. Next the percent of inhibition on aggregation was calculated by the following expression: 100 – (IFi/IFo × 100). IFi and IFo were the fluorescence intensities obtained for absorbance in the presence and absence of inhibitors, respectively. The background values were deducted in the calculations.
# EqBuChE = target: T5, EqBuChE (Equus caballus, UniProt P81908); experiment: Kinetic characterisation of BuChE inhibition (Lineweaver–Burk); format: biochemical; conditions: for Vmax: BuChE
# T5 construct: BuChE (EC 3.1.1.8, from equin serum); purchased Sigma Aldrich (Steinheim, Germany); host or cells: equine serum
# Protocol: Kinetic analysis was performed using Ellman’s test[4] ^, [25]. […]. Total volume of tested medium (140 µl) comprised: DTNB solution (0.4 mg/ml), BuChE solution (4 U/ml), solution of the examined compound and different concentrations of the substrate ATC iodide. Absorbance was detected at 412 nm at room temperature after 8 min. Results were calculated and presented on the Lineweaver–Burk plot. Received KM and Vmax values allowed to define the type of enzyme inhibition.
# [5] = target: T6, hyaluronidase from bovine testes Type I-S (Bos taurus, UniProt Q2YDK3); experiment: Hyaluronidase inhibition test (turbidimetric); format: biochemical; conditions: means ± standard deviation; read-out: HYAL IC50 ± SD
# T6 sequence (Q2YDK3 36-553): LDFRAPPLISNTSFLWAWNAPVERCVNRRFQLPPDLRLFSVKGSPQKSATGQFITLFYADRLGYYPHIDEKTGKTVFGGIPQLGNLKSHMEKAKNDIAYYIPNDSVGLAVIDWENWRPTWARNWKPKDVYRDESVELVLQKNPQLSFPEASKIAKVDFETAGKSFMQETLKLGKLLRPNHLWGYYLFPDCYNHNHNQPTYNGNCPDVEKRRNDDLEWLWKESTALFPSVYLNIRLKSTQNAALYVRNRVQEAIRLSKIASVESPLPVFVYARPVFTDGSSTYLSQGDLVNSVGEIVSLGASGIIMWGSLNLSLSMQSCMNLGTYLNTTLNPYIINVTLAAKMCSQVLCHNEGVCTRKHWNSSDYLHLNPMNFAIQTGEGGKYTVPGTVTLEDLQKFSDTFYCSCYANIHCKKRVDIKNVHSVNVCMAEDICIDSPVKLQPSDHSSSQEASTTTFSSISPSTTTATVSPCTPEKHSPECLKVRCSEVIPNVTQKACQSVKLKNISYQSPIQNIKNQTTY
# Protocol: The inhibition study of hyaluronidase was carried out by turbidimetric method adapted to the 96-well plates and described previously by Michel et al[32] ^, [33]. […] Mixture was incubated in the dark at 37 °C for 10 min. Then, 40 µl of hyaluronic acid solution (0.03%, Sigma Aldrich, Steinheim, Germany) in monosodium phosphate buffer (pH 5.35) was added to the wells and the plate was incubated in the dark at 37 °C for 45 min. At the end, 300 µl of bovine serum albumin solution (0.1%, Serva) in sodium acetate buffer (pH 3.75) was added to the wells and incubated in the room temperature for 10 min. The changes in turbidity were measured at 600 nm by a microplate reader (BioTek, Winooski, VT). The assay was run out in three experiments in triplicate to calculate IC50 values. Heparin (WZF, Polfa) was used as a positive control.
# The inhibition of hyaluronidase by the tested compound was calculated following the equation: % inhibition=100x1-AHA-AAN/AHA-AHYAL where AHA − absorbance of solution without the enzyme (positive control),
# AHYAL − absorbance of solution without the tested compound (negative control), AAN − absorbance of solution with the tested compound.
# [6] = means ± SEM of three independent experiments, electric eel AChE, read-out: AChE IC50 ± SEM
# T2 sequence (O42275 24-633): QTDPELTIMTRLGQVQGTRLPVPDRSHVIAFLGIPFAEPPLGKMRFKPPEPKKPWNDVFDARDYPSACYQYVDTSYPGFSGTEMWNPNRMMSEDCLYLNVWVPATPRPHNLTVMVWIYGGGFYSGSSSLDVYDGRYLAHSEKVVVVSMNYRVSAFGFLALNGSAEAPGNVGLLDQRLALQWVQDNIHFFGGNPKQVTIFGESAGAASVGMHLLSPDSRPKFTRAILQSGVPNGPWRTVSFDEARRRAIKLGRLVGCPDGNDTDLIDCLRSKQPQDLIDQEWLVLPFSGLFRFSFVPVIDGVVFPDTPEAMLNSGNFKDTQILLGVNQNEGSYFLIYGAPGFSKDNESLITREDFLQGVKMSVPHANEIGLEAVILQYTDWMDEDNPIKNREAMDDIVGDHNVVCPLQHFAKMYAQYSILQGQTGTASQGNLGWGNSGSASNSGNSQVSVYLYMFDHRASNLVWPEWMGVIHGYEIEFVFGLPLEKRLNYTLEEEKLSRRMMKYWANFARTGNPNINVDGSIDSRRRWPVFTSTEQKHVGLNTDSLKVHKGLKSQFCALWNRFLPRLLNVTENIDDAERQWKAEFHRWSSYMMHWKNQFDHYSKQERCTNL
# T3 sequence (O42275 24-633): as above
# T5 sequence (P81908 whole entry): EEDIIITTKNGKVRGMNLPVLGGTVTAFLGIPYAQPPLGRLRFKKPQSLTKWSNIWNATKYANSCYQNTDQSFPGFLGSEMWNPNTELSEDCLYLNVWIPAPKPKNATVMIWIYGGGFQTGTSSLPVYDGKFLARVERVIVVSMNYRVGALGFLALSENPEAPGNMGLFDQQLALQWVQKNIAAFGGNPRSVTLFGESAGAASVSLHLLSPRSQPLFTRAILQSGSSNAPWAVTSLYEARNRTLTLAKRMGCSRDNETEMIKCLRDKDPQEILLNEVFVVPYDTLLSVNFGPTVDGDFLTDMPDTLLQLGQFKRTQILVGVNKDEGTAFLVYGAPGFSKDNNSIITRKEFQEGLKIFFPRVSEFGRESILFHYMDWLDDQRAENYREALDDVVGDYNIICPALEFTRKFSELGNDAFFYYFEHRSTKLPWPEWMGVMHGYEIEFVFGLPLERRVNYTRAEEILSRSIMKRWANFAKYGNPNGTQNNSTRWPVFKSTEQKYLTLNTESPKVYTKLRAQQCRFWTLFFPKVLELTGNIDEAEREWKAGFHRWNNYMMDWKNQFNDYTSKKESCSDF
# T1 sequence (P81908 whole entry): as above
# T4 sequence (P05067 672-713 limits assumed): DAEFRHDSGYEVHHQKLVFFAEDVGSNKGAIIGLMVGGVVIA
compound,measurement,setting,value
"Cl.O=C(NCCNc1c2c(nc3ccccc13)CCC2)c1cnc(Cl)c(Cl)c1 [3a, 5,6-Dichloro-N-[2-(2,3-dihydro-1H-cyclopenta[b]quinolin-9-ylamino)-ethyl]-nicotinamide hydrochloride]",Selectivity for BuChE,[1]; IC50(AChE)/IC50(BuChE),0.035
same,IC50,[1],1860 ± 83 nM
same,Selectivity for AChE,[2],28.593
same,IC50,[2]; [6],65 ± 7 nM
"Cl.O=C(NCCCNc1c2c(nc3ccccc13)CCC2)c1cnc(Cl)c(Cl)c1 [3b, 5,6-Dichloro-N-[3-(2,3-dihydro-1H-cyclopenta[b]quinolin-9-ylamino)-propyl]-nicotinamide hydrochloride]",cell viability,[3],suddenly decreased
same,"viability at 48 h, 222.2 µM",[4]; 222.20 µM,~7%
same,viability at 48 h,[4]; concentrations from 0.22 to 2.22 µM,~70%
same,Selectivity for BuChE,[1],0.330
same,"BuChE inhibitory activity, fold higher than donepezil",[1],75 fold
same,IC50,[1],158 ± 29 nM
same,Vmax,EeAChE; inhibitor 3b 0.11 µM,312.50 A/min
same,Vmax,EeAChE; inhibitor 3b 1.11 µM,1666.67 A/min
same,type of EeAChE inhibition,EeAChE; Lineweaver–Burk plot,mixed type of inhibition
same,Aβ aggregation (%),Aβ1–42; 3b 5 µM,74.31%
same,Inhibition of Aβ aggregation (%),Aβ1–42; 3b 5 µM,25.7% and 25.69%
same,Aβ aggregation (%),Aβ1–42; 3b 10 µM,74.23%
same,Inhibition of Aβ aggregation (%),Aβ1–42; 3b 10 µM,25.77%
same,Aβ aggregation (%),Aβ1–42; 3b 25 µM,51.82%
same,Inhibition of Aβ aggregation (%),Aβ1–42; 3b 25 µM,48.18%
same,Aβ aggregation (%),Aβ1–42; 3b 50 µM,45.70%
same,Inhibition of Aβ aggregation (%),Aβ1–42; 3b 50 µM,54.30%
same,Aβ aggregation (%),Aβ1–42; 3b 100 µM,7.22%
same,Inhibition of Aβ aggregation (%),Aβ1–42; 3b 100 µM,92.8% and 92.78%
same,IC50,[2],52 ± 2 nM
same,Selectivity for AChE,[2],3.030
same,"AChE inhibitory potency, times higher than donepezil",[2]; in comparison to donepezil,~2 times
same,Vmax,EqBuChE; inhibitor 3b 0.22 µM,3333.3 A/min
same,Vmax,EqBuChE; inhibitor 3b 0.56 µM,1666.7 A/min
same,type of EqBuChE inhibition,EqBuChE; Lineweaver–Burk plot,mixed type of inhibition
"Cl.O=C(NCCCCNc1c2c(nc3ccccc13)CCC2)c1cnc(Cl)c(Cl)c1 [3c, 5,6-Dichloro-N-[4-(2,3-dihydro-1H-cyclopenta[b]quinolin-9-ylamino)-butyl]-nicotinamide hydrochloride]",Selectivity for BuChE,[1]; IC50(AChE)/IC50(BuChE),0.934
same,IC50,[1],797 ± 86 nM
same,Selectivity for AChE,[2],1.071
same,IC50,[2]; [6],744 ± 46 nM
"Cl.O=C(NCCCCCNc1c2c(nc3ccccc13)CCC2)c1cnc(Cl)c(Cl)c1 [3d, 5,6-Dichloro-N-[5-(2,3-dihydro-1H-cyclopenta[b]quinolin-9-ylamino)-pentyl]-nicotinamide hydrochloride]",Selectivity for BuChE,[1]; IC50(AChE)/IC50(BuChE),0.619
same,IC50,[1],460 ± 38 nM
same,Selectivity for AChE,[2],1.615
same,IC50,[2]; [6],285 ± 38 nM
"Cl.O=C(NCCCCCCNc1c2c(nc3ccccc13)CCC2)c1cnc(Cl)c(Cl)c1 [3e, 5,6-Dichloro-N-[6-(2,3-dihydro-1H-cyclopenta[b]quinolin-9-ylamino)-hexyl]-nicotinamide hydrochloride]",Selectivity for BuChE,[1]; IC50(AChE)/IC50(BuChE),0.420
same,IC50,[1],127 ± 14 nM
same,Selectivity for AChE,[2],2.380
same,IC50,[2]; [6],53 ± 5 nM
"Cl.O=C(NCCCCCCCNc1c2c(nc3ccccc13)CCC2)c1cnc(Cl)c(Cl)c1 [3f, 5,6-Dichloro-N-[7-(2,3-dihydro-1H-cyclopenta[b]quinolin-9-ylamino)-heptyl]-nicotinamide hydrochloride]",Selectivity for BuChE,[1]; IC50(AChE)/IC50(BuChE),1.756
same,"BuChE inhibitory activity, fold higher than donepezil",[1],167 fold
same,IC50,[1],71 ± 12 nM
same,Selectivity for AChE,[2],0.569
same,IC50,[2]; [6],125 ± 21 nM
"Cl.O=C(NCCCCCCCCNc1c2c(nc3ccccc13)CCC2)c1cnc(Cl)c(Cl)c1 [3g, 5,6-Dichloro-N-[8-(2,3-dihydro-1H-cyclopenta[b]quinolin-9-ylamino)-octyl]-nicotinamide hydrochloride]",Selectivity for BuChE,[1]; IC50(AChE)/IC50(BuChE),1.407
same,IC50,[1],108 ± 6 nM
same,Selectivity for AChE,[2],0.711
same,IC50,[2]; [6],152 ± 45 nM
"Cl.O=C(NCCCCCCCCCNc1c2c(nc3ccccc13)CCC2)c1cnc(Cl)c(Cl)c1 [3h, 5,6-Dichloro-N-[9-(2,3-dihydro-1H-cyclopenta[b]quinolin-9-ylamino)-nonyl]-nicotinamide hydrochloride]",Selectivity for BuChE,[1]; IC50(AChE)/IC50(BuChE),1.889
same,IC50,[1],82 ± 30 nM
same,Selectivity for AChE,[2],0.529
same,IC50,[2]; [6],155 ± 45 nM
Heparin,IC50,[5],56400 ± 780 nM
